Data published in PMC12217109, “Development of novel benzamide class I selective lysine deacetylase inhibitors as potent anticancer agents” (Journal of Enzyme Inhibition and Medicinal Chemistry, 2025).

Columns and labels:
HDAC11 = HDAC11 (Homo sapiens, UniProt Q96DB2); design: method as in PMID 32608981; settings: read-out: HDAC11 IC50; compiled data, ref [13]; cited from earlier work
[1] = system: MCF7 breast cancer cell line; test: MTT cellular viability assay, MCF7; type: cell-based; settings: Homo sapiens, 96 h
Experimental: The human A2780 ovarian (#93112519) and MCF-7 breast (#86012803) cancer cell lines were obtained from the European Cell Culture Collection (ECACC; Salisbury, UK). The human cardiac ventricular AC16 cell line (#SCC109) was obtained from Merck/Millipore (UK). The A2780 and MCF-7 cell lines were maintained in RPMI-1640 medium and the AC16 cell line was maintained in DMEM/F12 medium. Culture medium of all three cell lines was supplemented with 10% heat-inactivated foetal bovine serum (FBS) and 2 mM L-glutamine, with the cells maintained in a humidified 5% CO2 atmosphere at 37 °C. The media was changed every 72h and the cells passaged via trypsinisation (Trypsin EDTA, 0.25%) before reaching confluency.
Cytotoxicity of each compound against the cell lines was assessed using the MTT assay. Cells were seeded in three replicates into 96-well plates at a density of 2 × 10^3/well for 24h to facilitate cell attachment. Media was replaced with that containing either test compound (0–10µM) for A2780 and MCF7 cell lines, single concentration (10 µM) test compound for AC16 cell line, or drug vehicle (dimethyl sulphoxide; DMSO) and the cells incubated for a further 96 h at 37 °C in a humidified 5% CO2 atmosphere. […] Chemosensitivity was thereafter assessed using a standard 3-[4, 5-dimethylthiazolyl]-2,5-diphenyltetrazolium bromide (MTT) assay, with the optical density determined at 540 nm as an indicator of cellular viability.

HeLa nuclear KDACs = system: HeLa nuclear KDACs; design: method as in Beckers et al.[46]; settings: ref Beckers et al.[46]; read-out: HDAC Inhibition IC50; cited from earlier work
class I HDACs = system: class I HDACs; design: method as in PMID 31938461; settings: ref [91]; cited from earlier work

Chain of HDAC11 (Q96DB2 whole entry): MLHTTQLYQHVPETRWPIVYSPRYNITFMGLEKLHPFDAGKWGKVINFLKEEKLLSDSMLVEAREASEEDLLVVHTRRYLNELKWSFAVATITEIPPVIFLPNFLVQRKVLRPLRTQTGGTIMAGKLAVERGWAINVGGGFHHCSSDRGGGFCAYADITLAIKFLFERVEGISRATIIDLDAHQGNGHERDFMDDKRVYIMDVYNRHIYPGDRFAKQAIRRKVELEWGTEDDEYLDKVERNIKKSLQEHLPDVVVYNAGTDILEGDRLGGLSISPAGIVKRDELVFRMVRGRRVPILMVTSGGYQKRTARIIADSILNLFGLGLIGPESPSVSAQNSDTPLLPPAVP

Row | SMILES | IC50 (HDAC11) | IC50 [1] | IC50 (HeLa nuclear KDACs) | IC50 (class I HDACs)
1 | CC(=O)Nc1ccc(C(=O)Nc2ccccc2N)cc1 [Compound 2, Tacedinaline] | > 10 µM | 11.6 ± 1.1 µM | 8.5 ± 5.4 µM | –
2 | Nc1cc(F)ccc1NC(=O)c1ccc(CNC(=O)/C=C/c2cccnc2)cc1 [chidamide] | – | – | – | 0.11 to 0.33 µM
